Results published in EP0908457B1, “3-(1,2-benzisothiazol- and isoxazol-5-Y1)-2,4(1H,3H)-pyrimidinedione or thione and 3-(1,2-benzisothiazol- and isoxazol-5-y1)-4(3H)-pyrimidinone or thione herbicidal agents” (BASF AKTIENGESELLSCHAFT, priority 1997, dated 1999).

Key:
[1] = system: Cyperus serotinus, Rottb.; experiment: Preemergence weed control under flooded paddy conditions, CYPSE (Flatsedge); assay type: in vivo; conditions: preemergence, rated three to four weeks after treatment; note: meaning of each grade not given here
[2] = system: Cyperus iria; experiment: Preemergence weed control under flooded paddy conditions, CYPIR (Rice Flatsedge); assay type: in vivo; conditions: preemergence, flooded paddy, rated three to four weeks after treatment; note: meaning of each grade not given here
[3] = system: Oryza sativa, (L.) Tebonnet; experiment: Rice tolerance to post-transplant applications under flooded paddy conditions (Example 187), ORYSAT (Rice, Tebonnet); conditions: rated three to four weeks after treatment
[4] = system: Monochoria vaginalis, Presl.; experiment: Preemergence weed control under flooded paddy conditions, MOOVA (Monochoria); assay type: in vivo; conditions: preemergence, flooded paddy, rated three to four weeks after treatment; note: meaning of each grade not given here
[5] = system: Sagittaria pygmaea, L.; experiment: Preemergence weed control under flooded paddy conditions, SAGPY (Arrowhead (Pygmaea)); assay type: in vivo; conditions: preemergence, flooded paddy, rated three to four weeks after treatment; note: meaning of each grade not given here
[6] = system: Echinochloa oryzoides (Ard.) Fritsch.; experiment: Preemergence weed control under flooded paddy conditions, ECHORC (Watergrass (Calif.)); assay type: in vivo; conditions: preemergence, flooded paddy, rated three to four weeks after treatment; note: meaning of each grade not given here

| SMILES | herbicidal effect rating, CYPSE ([1]; 0.0625 kg/ha) | herbicidal effect rating, CYPSE ([1]; 0.1250 kg/ha) | herbicidal effect rating, CYPSE ([1]; 0.2500 kg/ha) | herbicidal effect rating, CYPIR ([2]; 0.0313 kg/ha) | herbicidal effect rating, CYPIR ([2]; 0.0625 kg/ha) | herbicidal effect rating, CYPIR ([2]; 0.1250 kg/ha) | herbicidal effect rating, CYPIR ([2]; 0.2500 kg/ha) | herbicidal effect rating, ORYSAT (rice tolerance) ([3]; 0.0313 kg/ha) | herbicidal effect rating, ORYSAT (rice tolerance) ([3]; 0.0625 kg/ha) | herbicidal effect rating, ORYSAT (rice tolerance) ([3]; 0.1250 kg/ha) | herbicidal effect rating, ORYSAT (rice tolerance) ([3]; 0.2500 kg/ha) | herbicidal effect rating, MOOVA ([4]; 0.0313 kg/ha) | herbicidal effect rating, MOOVA ([4]; 0.0625 kg/ha) | herbicidal effect rating, MOOVA ([4]; 0.1250 kg/ha) | herbicidal effect rating, MOOVA ([4]; 0.2500 kg/ha) | herbicidal effect rating, SAGPY ([5]; 0.0313 kg/ha) | herbicidal effect rating, SAGPY ([5]; 0.0625 kg/ha) | herbicidal effect rating, SAGPY ([5]; 0.1250 kg/ha) | herbicidal effect rating, SAGPY ([5]; 0.2500 kg/ha) | herbicidal effect rating, ECHORC ([6]; 0.0313 kg/ha) | other results |
| --- | --- | --- | --- | --- | --- | --- | --- | --- | --- | --- | --- | --- | --- | --- | --- | --- | --- | --- | --- | --- | --- |
| Cc1ccc(O)c(-c2noc3ccc(-n4c(=O)cc(C(F)(F)F)n(C)c4=O)c(Cl)c23)c1 [Example 41, 3-[4-Chloro-3-(6-hydroxy-m-tolyl)-1,2-benzisoxazol-5-yl]-1-methyl-6-(trifluoromethyl)-2,4(1H,3H)-pyrimidinedione] | 0.0 | 0.0 | 0.0 | 0.0 | 0.0 | 1.0 | 2.0 | 0.0 | 0.0 | 0.0 | 0.0 | 0.0 | 2.0 | 4.0 | 9.0 | 0.0 | 0.0 | 0.0 | 0.0 | 0.0 | herbicidal effect rating, CYPSE ([1]; 0.0313 kg/ha): 0.0; herbicidal effect rating, ECHORC ([6]; 0.0625 kg/ha): 0.0; herbicidal effect rating, ECHORC ([6]; 0.1250 kg/ha): 2.0; herbicidal effect rating, ECHORC ([6]; 0.2500 kg/ha): 6.0 |
| COc1noc2ccc(-n3c(=O)cc(C(F)(F)F)n(C)c3=O)cc12 [Example 42, 3-(3-Methoxy-1,2-benzisoxazol-5-yl)-1-methyl-6-(trifluoromethyl)-2,4(1H,3H)-pyrimidinedione] | 0.0 | 0.0 | 0.0 | 0.0 | 0.0 | 0.0 | 0.0 | 0.0 | 0.0 | 0.0 | 0.0 | 0.0 | 0.0 | 0.0 | 0.0 | 0.0 | 0.0 | 0.0 | 0.0 | 0.0 | herbicidal effect rating, CYPSE ([1]; 0.0313 kg/ha): 0.0; herbicidal effect rating, ECHORC ([6]; 0.0625 kg/ha): 0.0; herbicidal effect rating, ECHORC ([6]; 0.1250 kg/ha): 0.0; herbicidal effect rating, ECHORC ([6]; 0.2500 kg/ha): 0.0 |
| COc1ccccc1Oc1noc2ccc(-n3c(=O)cc(C(F)(F)F)n(C)c3=O)cc12 [Example 43, 3-[3-(o-Methoxyphenoxy)-1,2-benzisoxazol-5-yl]-1-methyl-6-(trifluoromethyl)-2,4(1H,3H)-pyrimidinedione] | 0.0 | 0.0 | 0.0 | 0.0 | 0.0 | 0.0 | 0.0 | 1.0 | 2.0 | 3.0 | 3.0 | 6.0 | 9.0 | 9.0 | 9.0 | 0.0 | 0.0 | 0.0 | 0.0 | 0.0 | herbicidal effect rating, CYPSE ([1]; 0.0313 kg/ha): 0.0; herbicidal effect rating, ECHORC ([6]; 0.0625 kg/ha): 0.0; herbicidal effect rating, ECHORC ([6]; 0.1250 kg/ha): 2.0; herbicidal effect rating, ECHORC ([6]; 0.2500 kg/ha): 8.0 |
| CCc1ccc(OC)c(-c2nsc3ccc(-n4c(=O)cc(C(F)(F)F)n(C)c4=O)cc23)c1 [Example 45, 3-[3-(5-Ethyl-2-methoxyphenyl)-1,2-benzisothiazol-5-yl]-1-methyl-6-(trifluoromethyl)-2,4(1H,3H)-pyrimidinedione] | 2.0 | 9.0 | 9.0 | 6.0 | 9.0 | 9.0 | 9.0 | 2.0 | 2.0 | 3.0 | 3.0 | 9.0 | 9.0 | 9.0 | 9.0 | 0.0 | 0.0 | 4.0 | 6.0 | 9.0 | herbicidal effect rating, ECHORC ([6]; 0.0625 kg/ha): 9.0; herbicidal effect rating, ECHORC ([6]; 0.1250 kg/ha): 9.0; herbicidal effect rating, ECHORC ([6]; 0.2500 kg/ha): 9.0 |
